Results: ChEMBL document CHEMBL1201861, “Genomics of Drug Sensitity in Cancer screening data, Wellcome Trust Sanger Institute”

How the values were obtained:
Experiment in all cases: cells
[1] = system: U-251; format: functional, cell-based; settings: Homo sapiens;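 also: growth inhibition of human U-251 cells, read out through a cell viability assay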
Description: SANGER: Inhibition of human U251 cell growth in a cell viability assay.

[2] = system: BT-20; format: functional, cell-based; settings: Homo sapiens;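 also: cell viability assay measuring suppression of growth in human BT-20 cells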
Description: SANGER: Inhibition of human BT-20 cell growth in a cell viability assay.

[3] = system: DBTRG-05MG; format: functional, cell-based; settings: Homo sapiens;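 also: cell viability assay measuring growth inhibition of human DBTRG-05MG cells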
Description: SANGER: Inhibition of human DBTRG-05MG cell growth in a cell viability assay.

[4] = system: NCI-H520; format: functional, cell-based; settings: Homo sapiens;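 also: growth inhibition of NCI-H520 cells, measured by a cell viability assay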
Description: SANGER: Inhibition of human NCI-H520 cell growth in a cell viability assay.

[5] = system: MKN-28; format: functional, cell-based; settings: Homo sapiens;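 also: cell viability assay read-out, IC50 reflects suppression of growth of human MKN-28 cells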
Description: SANGER: Inhibition of human MKN28 cell growth in a cell viability assay.

[6] = system: PANC-03-27; format: functional, cell-based; settings: Homo sapiens
Description: SANGER: Inhibition of human PANC-03-27 cell growth in a cell viability assay.

[7] = system: SW-620; format: functional, cell-based; settings: Homo sapiens;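 also: growth inhibition of human SW-620 cells, measured by a cell viability assay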
Description: SANGER: Inhibition of human SW620 cell growth in a cell viability assay.

[8] = system: HCC1954; format: functional, cell-based; settings: Homo sapiens;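 also: growth inhibition of human HCC1954 cells, read out with a cell viability assay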
Description: SANGER: Inhibition of human HCC1954 cell growth in a cell viability assay.

[9] = system: NB7; format: functional, cell-based, Homo sapiens; settings: Homo sapiens, NB7;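 also: growth inhibition of NB7 cells, read out with a cell viability assay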
Description: SANGER: Inhibition of human NB7 cell growth in a cell viability assay.

[10] = system: PA-1; format: functional, cell-based; settings: Homo sapiens;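 also: IC50 for suppression of PA-1 cell proliferation, determined with a cell viability read-out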
Description: SANGER: Inhibition of human PA-1 cell growth in a cell viability assay.

[11] = system: VMRC-RCZ; format: functional, cell-based; settings: Homo sapiens;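 also: growth inhibition measured with a cell viability assay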
Description: SANGER: Inhibition of human VMRC-RCZ cell growth in a cell viability assay.

[12] = system: SK-LU-1; format: functional, cell-based; settings: Homo sapiens;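 also: cell viability assay measuring growth inhibition of human SK-LU-1 cells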
Description: SANGER: Inhibition of human SK-LU-1 cell growth in a cell viability assay.

[13] = system: DK-MG; format: functional, cell-based; settings: Homo sapiens;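 also: growth inhibition of DK-MG cells, read out with a cell viability assay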
Description: SANGER: Inhibition of human DK-MG cell growth in a cell viability assay.

[14] = system: SW1783; format: functional, cell-based; settings: Homo sapiens;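 also: cell growth inhibition measured with a viability assay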
Description: SANGER: Inhibition of human SW1783 cell growth in a cell viability assay.

[15] = system: MIA PaCa-2; format: functional, cell-based; settings: Homo sapiens;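 also: growth inhibition of MIA PaCa-2 cells, read out with a cell viability assay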
Description: SANGER: Inhibition of human MIA-PaCa-2 cell growth in a cell viability assay.

[16] = system: KYSE-180; format: functional, cell-based; settings: Homo sapiens;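 also: growth inhibition of KYSE-180 cells, read out with a cell viability assay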
Description: SANGER: Inhibition of human KYSE-180 cell growth in a cell viability assay.

[17] = system: NCI-H2228; format: functional, cell-based; settings: Homo sapiens;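 also: growth inhibition of human NCI-H2228 cells, read out by a cell viability assay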
Description: SANGER: Inhibition of human NCI-H2228 cell growth in a cell viability assay.

[18] = system: SW1573; format: functional, cell-based; settings: Homo sapiens;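 also: growth inhibition of SW1573 cells, read out with a cell viability assay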
Description: SANGER: Inhibition of human SW1573 cell growth in a cell viability assay.

[19] = system: KYSE-450; format: functional, cell-based; settings: Homo sapiens;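 also: cell growth inhibition measured by a viability assay in human KYSE-450 cells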
Description: SANGER: Inhibition of human KYSE-450 cell growth in a cell viability assay.

[20] = system: NCI-H1793; format: functional, cell-based; settings: Homo sapiens;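 also: cell growth inhibition, read out by a cell viability assay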
Description: SANGER: Inhibition of human NCI-H1793 cell growth in a cell viability assay.

[21] = system: NCI-H1993; format: functional, cell-based; settings: Homo sapiens;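 also: growth inhibition of the cancer cell line, assessed with a cell viability assay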
Description: SANGER: Inhibition of human NCI-H1993 cell growth in a cell viability assay.

[22] = system: CAL-62; format: functional, cell-based; settings: Homo sapiens;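 also: growth inhibition of CAL-62 cells, read out with a cell viability assay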
Description: SANGER: Inhibition of human CAL-62 cell growth in a cell viability assay.

[23] = system: OAW-42; format: functional, cell-based; settings: Homo sapiens;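 also: growth inhibition of OAW-42 cells, read out with a cell viability assay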
Description: SANGER: Inhibition of human OAW-42 cell growth in a cell viability assay.

[24] = system: NCI-H460; format: functional, cell-based; settings: Homo sapiens;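 also: cell viability assay scoring growth inhibition of human NCI-H460 cells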
Description: SANGER: Inhibition of human NCI-H460 cell growth in a cell viability assay.

[25] = system: BFTC-909; format: functional, cell-based; settings: Homo sapiens
Description: SANGER: Inhibition of human BFTC-909 cell growth in a cell viability assay.

[26] = system: OVCAR-5; format: functional, cell-based; settings: Homo sapiens;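 also: growth inhibition of human OVCAR-5 cells, read out with a cell viability assay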
Description: SANGER: Inhibition of human OVCAR-5 cell growth in a cell viability assay.

[27] = system: Detroit 562; format: functional, cell-based; settings: Homo sapiens;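 also: growth inhibition of human Detroit 562 cells, read out by a cell viability assay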
Description: SANGER: Inhibition of human Detroit562 cell growth in a cell viability assay.

[28] = system: C32; format: functional, cell-based; settings: Homo sapiens;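 also: cell viability assay, with IC50 reflecting inhibition of C32 cell growth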
Description: SANGER: Inhibition of human C32 cell growth in a cell viability assay.

[29] = system: CAL-12T; format: functional, cell-based; settings: Homo sapiens;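 also: growth inhibition of human CAL-12T cells, read out with a cell viability assay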
Description: SANGER: Inhibition of human CAL-12T cell growth in a cell viability assay.

[30] = system: MCF7; format: functional, cell-based; settings: Homo sapiens;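 also: growth inhibition of human MCF7 cells, read out with a cell viability assay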
Description: SANGER: Inhibition of human MCF7 cell growth in a cell viability assay.

[31] = system: ME-180; format: functional, cell-based; settings: Homo sapiens;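 also: cell viability assay measuring growth inhibition of ME-180 cells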
Description: SANGER: Inhibition of human ME-180 cell growth in a cell viability assay.

[32] = system: Panc1005; format: functional, cell-based; settings: Homo sapiens;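 also: growth inhibition of human PANC-10-05 cells, measured by a cell viability assay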
Description: SANGER: Inhibition of human PANC-10-05 cell growth in a cell viability assay.

[33] = system: RMG-I; format: functional, cell-based; settings: Homo sapiens;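 also: growth inhibition of human RMG-I cells, read out with a cell viability assay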
Description: SANGER: Inhibition of human RMG-I cell growth in a cell viability assay.

[34] = system: SK-MES-1; format: functional, cell-based; settings: Homo sapiens;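 also: growth inhibition of human SK-MES-1 cells, read out with a cell viability assay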
Description: SANGER: Inhibition of human SK-MES-1 cell growth in a cell viability assay.

[35] = system: HT-1376; format: functional, cell-based; settings: Homo sapiens
Description: SANGER: Inhibition of human HT-1376 cell growth in a cell viability assay.

[36] = system: 5637; format: functional, cell-based; settings: Homo sapiens
Description: SANGER: Inhibition of human 5637 cell growth in a cell viability assay.

[37] = system: HT-1080; format: functional, cell-based; settings: Homo sapiens
Description: SANGER: Inhibition of human HT-1080 cell growth in a cell viability assay.

[38] = system: NCI-H1563; format: functional, cell-based; settings: Homo sapiens;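 also: growth inhibition of human NCI-H1563 cells, read out with a cell viability assay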
Description: SANGER: Inhibition of human NCI-H1563 cell growth in a cell viability assay.

[39] = system: HCT-15; format: functional, cell-based; settings: Homo sapiens;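 also: cell viability readout, IC50 reflecting suppression of HCT-15 cell growth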
Description: SANGER: Inhibition of human HCT-15 cell growth in a cell viability assay.

Compound | IC50 [1] [µM] | IC50 [2] [µM] | IC50 [3] [µM] | IC50 [4] [µM] | IC50 [5] [µM] | IC50 [6] [µM] | IC50 [7] [µM] | IC50 [8] [µM] | IC50 [9] [µM] | IC50 [10] [µM] | IC50 [11] [µM] | IC50 [12] [µM] | IC50 [13] [µM] | IC50 [14] [µM] | IC50 [15] [µM] | IC50 [16] [µM] | IC50 [24] [µM] | IC50 [30] [µM] | IC50 [36] [µM] | IC50 [37] [µM] | further results
CS(=O)(=O)N1CCN(Cc2cc3nc(-c4cccc5[nH]ncc45)nc(N4CCOCC4)c3s2)CC1 [PICTILISIB] | > 4 | 1.69 | > 4 | 1.09 | > 4 | 1.51 | > 4 | > 4 | 0.39 | 0.532 | > 4 | 2.45 | > 4 | > 4 | > 4 | > 4 | > 4 | 0.899 | 2.71 | 3.09 | IC50 [17]: 1.85 µM; IC50 [18]: 3.75 µM; IC50 [19]: > 4 µM; IC50 [20]: > 4 µM; IC50 [21]: > 4 µM; IC50 [22]: > 4 µM; IC50 [23]: 0.872 µM; IC50 [25]: 1.43 µM; IC50 [26]: 0.94 µM; IC50 [27]: > 4 µM; IC50 [28]: 3.42 µM; IC50 [29]: > 4 µM; IC50 [31]: 1.93 µM; IC50 [32]: > 4 µM; IC50 [33]: > 4 µM; IC50 [34]: 2.01 µM; IC50 [35]: > 4 µM; IC50 [38]: 0.916 µM
CO[C@@H]1[C@H](N(C)C(=O)c2ccccc2)C[C@H]2O[C@]1(C)n1c3ccccc3c3c4c(c5c6ccccc6n2c5c31)C(=O)NC4 [MIDOSTAURIN] | – | – | > 0.512 | – | > 0.512 | 0.16 | – | – | – | – | – | – | – | > 0.512 | – | – | > 0.512 | 0.333 | > 0.512 | 0.16 | IC50 [39]: 0.334 µM; IC50 [26]: > 0.512 µM
O=C(NCCCNc1nc(Nc2cccc(NC(=O)N3CCCC3)c2)ncc1I)c1cccs1 [BX-795] | > 5 | > 5 | > 5 | > 5 | > 5 | 4.21 | > 5 | > 5 | > 5 | 0.804 | 2.77 | > 5 | 1.57 | 3.54 | > 5 | > 5 | 2.44 | > 5 | > 5 | > 5 | IC50 [17]: > 5 µM; IC50 [18]: > 5 µM; IC50 [19]: > 5 µM; IC50 [20]: > 5 µM; IC50 [21]: > 5 µM; IC50 [22]: > 5 µM; IC50 [23]: 3.66 µM; IC50 [25]: 4.65 µM; IC50 [26]: 2.28 µM; IC50 [27]: 3.89 µM; IC50 [28]: 1.76 µM; IC50 [29]: 4.79 µM; IC50 [31]: 3.39 µM; IC50 [32]: > 5 µM; IC50 [33]: > 5 µM; IC50 [34]: 2.96 µM; IC50 [35]: > 5 µM; IC50 [38]: > 5 µM
O=C1NC(=O)c2c1c(-c1ccccc1Cl)cc1[nH]c3ccc(O)cc3c21 | > 2 | > 2 | > 2 | > 2 | > 2 | 1.21 | > 2 | > 2 | > 2 | > 2 | > 2 | 1 | > 2 | > 2 | > 2 | > 2 | > 2 | > 2 | > 2 | 1.2 | IC50 [17]: > 2 µM; IC50 [18]: > 2 µM; IC50 [19]: > 2 µM; IC50 [20]: > 2 µM; IC50 [21]: > 2 µM; IC50 [22]: > 2 µM; IC50 [25]: > 2 µM; IC50 [27]: > 2 µM; IC50 [28]: 1.53 µM; IC50 [29]: > 2 µM; IC50 [31]: > 2 µM; IC50 [32]: > 2 µM; IC50 [34]: 1.72 µM; IC50 [35]: > 2 µM; IC50 [38]: > 2 µM
CN(C)CCOc1ccc(-c2nc(-c3ccncc3)c(-c3ccc4c(c3)CC/C4=N\O)[nH]2)cc1 [SB590885] | > 5 | > 5 | 3.53 | > 5 | > 5 | > 5 | > 5 | > 5 | > 5 | > 5 | > 5 | > 5 | > 5 | > 5 | > 5 | > 5 | > 5 | > 5 | > 5 | > 5 | IC50 [17]: > 5 µM; IC50 [18]: > 5 µM; IC50 [19]: > 5 µM; IC50 [20]: > 5 µM; IC50 [21]: > 5 µM; IC50 [22]: > 5 µM; IC50 [23]: > 5 µM; IC50 [25]: > 5 µM; IC50 [26]: > 5 µM; IC50 [27]: > 5 µM; IC50 [28]: 0.0996 µM; IC50 [29]: > 5 µM; IC50 [31]: > 5 µM; IC50 [32]: > 5 µM; IC50 [33]: > 5 µM; IC50 [34]: > 5 µM; IC50 [35]: > 5 µM; IC50 [38]: > 5 µM
NC1(c2ccc(-c3nc4ccn5c(=O)[nH]nc5c4cc3-c3ccccc3)cc2)CCC1 [MK-2206] | > 4 | > 4 | > 4 | 0.986 | – | > 4 | > 4 | > 4 | 0.824 | 1.35 | > 4 | > 4 | > 4 | > 4 | > 4 | > 4 | > 4 | 2.86 | > 4 | > 4 | IC50 [17]: 2.32 µM; IC50 [18]: > 4 µM; IC50 [19]: > 4 µM; IC50 [20]: > 4 µM; IC50 [21]: > 4 µM; IC50 [22]: > 4 µM; IC50 [23]: 0.887 µM; IC50 [25]: > 4 µM; IC50 [26]: > 4 µM; IC50 [27]: > 4 µM; IC50 [28]: > 4 µM; IC50 [29]: > 4 µM; IC50 [31]: 1.57 µM; IC50 [32]: > 4 µM; IC50 [33]: 2.16 µM; IC50 [34]: > 4 µM; IC50 [35]: > 4 µM; IC50 [38]: 0.482 µM
CC1(C)CCC(c2ccc(Cl)cc2)=C(CN2CCN(c3ccc(C(=O)NS(=O)(=O)c4ccc(N[C@H](CCN5CCOCC5)CSc5ccccc5)c(S(=O)(=O)C(F)(F)F)c4)cc3)CC2)C1 [NAVITOCLAX] | > 2 | > 2 | > 2 | > 2 | > 2 | > 2 | > 2 | > 2 | > 2 | 0.956 | > 2 | > 2 | > 2 | > 2 | > 2 | > 2 | > 2 | > 2 | > 2 | > 2 | IC50 [17]: > 2 µM; IC50 [18]: > 2 µM; IC50 [19]: > 2 µM; IC50 [20]: > 2 µM; IC50 [21]: > 2 µM; IC50 [22]: > 2 µM; IC50 [23]: 0.961 µM; IC50 [25]: > 2 µM; IC50 [26]: > 2 µM; IC50 [27]: > 2 µM; IC50 [28]: 1.19 µM; IC50 [29]: > 2 µM; IC50 [31]: > 2 µM; IC50 [32]: > 2 µM; IC50 [33]: 0.495 µM; IC50 [34]: > 2 µM; IC50 [35]: > 2 µM; IC50 [38]: > 2 µM
